# Paper PMC12529750 (Emerging Microbes & Infections, 2025)
# What was measured:
# [1] = test system: SARS-CoV-2 original virus (SARS-CoV-2/human/Denmark/DK-AHH1/2020); experiment: microbe, parasite or virus in culture; type: cell-based
# [2] = test system: VeroE6 and A549-hACE2 cells
# [3] = human, in vivo; cited from earlier work
# [4] = Severe acute respiratory syndrome coronavirus 2
# [5] = Severe acute respiratory syndrome coronavirus 2, Vero C1008
SMILES,"EC50 [1, 4] [nM]","EC50 [1, 5] [nM]","Cytotoxicity (cell viability, CC50) [2]",Cmax [3] [µM]
"CC(C)(C)[C@H](NC(=O)C(F)(F)F)C(=O)N1C[C@H]2[C@@H]([C@H]1C(=O)N[C@H](C#N)C[C@@H]1CCNC1=O)C2(C)C [NIR, Nirmatrelvir]",40,2900,–,–
"Cn1cnc(Cn2c(=O)[nH]/c(=N\c3cc4cn(C)nc4cc3Cl)n(Cc3cc(F)c(F)cc3F)c2=O)n1 [ENS, Ensitrelvir]",100,420,low,57
